Experimental data taken from ChEMBL document CHEMBL3046923, “Heteroaromatic analogues of 1,5-diarylpyrazole class as anti-inflammatory agents” (2012).
Active and inactive are the calls of the source. The calls are words filed in the database; no cut-off is given here.

What was measured:
Type in all cases: functional
Rattus norvegicus [1] = assay: Anti-inflammatory activity in Rattus norvegicus Wistar albino (rat) assessed as inhibition of carrageenan-induced paw edema at 50 mg/kg, po administered for 30 min prior to carrageenan challenge measured at 2 hr relative to control
Rattus norvegicus [2] = assay: Anti-inflammatory activity in Rattus norvegicus Wistar albino (rat) assessed as inhibition of carrageenan-induced paw edema at 50 mg/kg, po administered for 30 min prior to carrageenan challenge measured at 3 hr relative to control
Rattus norvegicus [3] = assay: Anti-inflammatory activity in Rattus norvegicus Wistar albino (rat) assessed as inhibition of carrageenan-induced paw edema at 50 mg/kg, po administered for 30 min prior to carrageenan challenge measured at 1 hr relative to control
Rattus norvegicus [4] = assay: Anti-inflammatory activity in Rattus norvegicus Wistar albino (rat) assessed as inhibition of carrageenan-induced paw edema at 50 mg/kg, po administered for 30 min prior to carrageenan challenge measured at 4 hr relative to control
Rattus norvegicus [5] = assay: Anti-inflammatory activity in Rattus norvegicus Wistar albino (rat) assessed as inhibition of carrageenan-induced paw edema at 10 mg/kg, ip administered for 30 min prior to carrageenan challenge measured at 1 hr relative to control; conditions: route intraperitoneal
Rattus norvegicus [6] = assay: Anti-inflammatory activity in Rattus norvegicus Wistar albino (rat) assessed as inhibition of carrageenan-induced paw edema at 10 mg/kg, ip administered for 30 min prior to carrageenan challenge measured at 4 hr relative to control; conditions: route intraperitoneal
Rattus norvegicus [7] = assay: Anti-inflammatory activity in Rattus norvegicus Wistar albino (rat) assessed as inhibition of carrageenan-induced paw edema at 10 mg/kg, ip administered for 30 min prior to carrageenan challenge measured at 3 hr relative to control; conditions: route intraperitoneal
Rattus norvegicus [8] = assay: Anti-inflammatory activity in Rattus norvegicus Wistar albino (rat) assessed as inhibition of carrageenan-induced paw edema at 10 mg/kg, ip administered for 30 min prior to carrageenan challenge measured at 2 hr relative to control; conditions: route intraperitoneal

Compound	inhibition in vivo at 50 mg/kg (Rattus norvegicus [1])	inhibition in vivo at 50 mg/kg (Rattus norvegicus [2])	inhibition in vivo at 50 mg/kg (Rattus norvegicus [3])	inhibition in vivo at 50 mg/kg (Rattus norvegicus [4])	also measured
NS(=O)(=O)c1ccc2nc(-n3nc(C(F)(F)F)cc3-c3ccc4ccccc4c3)sc2c1	27%	53%	30%	20%	–
NS(=O)(=O)c1ccc2nc(-n3nc(C(F)(F)F)cc3-c3ccc(F)cc3)sc2c1	48%	64%	54%	50%	–
COc1ccc(-c2cc(C(F)(F)F)nn2-c2nc3ccc(S(N)(=O)=O)cc3s2)cc1	31%	60%	42%	53%	–
NS(=O)(=O)c1ccc2nc(-n3nc(C(F)(F)F)cc3-c3ccc(Cl)cc3)sc2c1	42%	61%	44%	42%	–
NS(=O)(=O)c1ccc2nc(-n3nc(C(F)(F)F)cc3-c3cccs3)sc2c1	26%	49%	5%	15%	–
COc1ccc2c(c1)c(CC(=O)O)c(C)n2C(=O)c1ccc(Cl)cc1 [INDOMETHACIN]	–	–	–	–	inhibition in vivo at 10 mg/kg (Rattus norvegicus [5]): 70%; inhibition in vivo at 10 mg/kg (Rattus norvegicus [6]): 75%; inhibition in vivo at 10 mg/kg (Rattus norvegicus [7]): 78%; inhibition in vivo at 10 mg/kg (Rattus norvegicus [8]): 78%
NS(=O)(=O)c1ccc2nc(-n3nc(C(F)(F)F)cc3-c3ccc(Br)cc3)sc2c1	56%	60%	45%	43%	–
Cc1ccc(-c2cc(C(F)(F)F)nn2-c2nc3ccc(S(N)(=O)=O)cc3s2)cc1	38%	56%	35%	52%	–
NS(=O)(=O)c1ccc2nc(-n3nc(C(F)(F)F)cc3-c3ccco3)sc2c1	46%	61%	27%	54%	–
Cc1ccc(-c2cc(C(F)(F)F)n(-c3nc4ccc(S(N)(=O)=O)cc4s3)n2)cc1	–	–	–	–	inhibition (Rattus norvegicus [1]): inactive; inhibition (Rattus norvegicus [2]): inactive; inhibition (Rattus norvegicus [3]): inactive; inhibition (Rattus norvegicus [4]): inactive
NS(=O)(=O)c1ccc2nc(-n3nc(C(F)(F)F)cc3-c3ccccc3)sc2c1	48%	54%	32%	17%	–
